Measured values taken from US7342034B2, “Fused heterocyclic compounds and analogs thereof, modulators of nuclear hormone receptor function” (Bristol-Myers Squibb Company, priority 2001, dated 2008).
pKd: −log10 of the molar value. Read-outs that look alike come from different tables or passages of the source.

How the values were obtained:
AR [1] = target: T1, AR (Rattus norvegicus, UniProt P15207)
T1 sequence (P15207 1-902): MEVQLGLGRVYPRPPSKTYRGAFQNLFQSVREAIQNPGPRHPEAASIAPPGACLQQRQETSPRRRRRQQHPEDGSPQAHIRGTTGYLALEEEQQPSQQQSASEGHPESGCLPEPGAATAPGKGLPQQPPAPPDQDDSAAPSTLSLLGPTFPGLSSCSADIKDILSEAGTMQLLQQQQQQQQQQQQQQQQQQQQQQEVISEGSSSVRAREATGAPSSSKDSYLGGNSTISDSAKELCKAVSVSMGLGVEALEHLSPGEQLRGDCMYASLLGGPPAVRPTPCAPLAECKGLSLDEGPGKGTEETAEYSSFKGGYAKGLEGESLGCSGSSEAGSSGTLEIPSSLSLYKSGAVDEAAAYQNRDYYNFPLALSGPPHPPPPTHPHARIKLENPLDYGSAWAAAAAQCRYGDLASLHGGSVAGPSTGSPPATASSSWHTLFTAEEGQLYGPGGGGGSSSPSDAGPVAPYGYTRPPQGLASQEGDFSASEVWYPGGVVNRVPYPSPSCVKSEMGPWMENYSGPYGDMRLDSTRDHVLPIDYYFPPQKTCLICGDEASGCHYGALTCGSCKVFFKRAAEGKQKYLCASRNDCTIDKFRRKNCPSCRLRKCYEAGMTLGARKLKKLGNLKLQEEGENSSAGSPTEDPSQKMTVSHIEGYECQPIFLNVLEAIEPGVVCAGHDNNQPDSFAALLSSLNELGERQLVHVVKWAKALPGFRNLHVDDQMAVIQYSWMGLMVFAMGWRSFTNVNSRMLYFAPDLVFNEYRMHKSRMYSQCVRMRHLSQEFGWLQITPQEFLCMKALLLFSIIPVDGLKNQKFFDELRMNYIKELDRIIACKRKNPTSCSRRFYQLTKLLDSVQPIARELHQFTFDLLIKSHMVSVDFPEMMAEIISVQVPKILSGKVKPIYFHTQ

AR [2] = target: T1, AR; conditions: castrated rats
From the text: The activity of compounds of the present invention as AR agonists was investigated in an immature male rat model, a recognized test of anabolic effects in muscle and sustaining effects in sex organs for a given compound, as described in L. G. Hershberger et al., Proc. Soc. […] Yak. Ken. Nem.
The basis of this assay lies in the well-defined action of androgenic agents on the maintenance and growth of muscle tissues and sexual accessory organs in animals and man. […] J. Anat. […] Ital. Biol. Sper. […] II. […] Ital. Biol. Sper. […] As described above, the effects of androgens on maintenance of male sexual accessory organs, such as the prostate and seminal vesicles, is well described. Castration results in rapid involution and atrophy of the prostate and seminal vesicles. This effect can be reversed by exogenous addition of androgens. Since both the levator ani muscle and the male sex organs are the tissues most responsive to the effects of androgenic agents, this model is used to determine the androgen dependent reversal of atrophy in the levator ani muscle and the sex accessory organs in immature castrated rats. Sexually mature rats (200-250 g, 6-8 weeks-old, Sprague-Dawley, Harlan) were acquired castrated from the vendor (Taconic). The rats were divided into groups and treated daily for 7 to 14 days with one of the following: • 1. Control vehicle • 2. […]

wild type AR = conditions: read-out: Kd for [^3H]-DHT; MDA 453 cells, saturation analysis, Scatchard
Procedure: For the saturation analysis, the difference between the total binding and the non-specific binding, was defined as specific binding.
Two replicates were used for each sample. After 4 hours at 37° C., cells were washed, harvested and counted as described above. […] The KI, values were determined by application of the Cheng-Prusoff equation to the IC50 values, where:
[formula] After correcting for non-specific binding, IC50 values were determined. […]

| Compound | ED80 (AR [1]; immature castrated rat model) | EC50 (increase in organ weight) (AR [1]; immature castrated rats, 3 days dosing) | higher potency than free T (AR [1]; organ weight increase, immature castrated rats) | EC50 (increase in organ weight) (AR [2]; 3 days dosing) | higher potency than free T (AR [2]; organ weight increase) | pKd (wild type AR) |
| --- | --- | --- | --- | --- | --- | --- |
| CCC(=O)O[C@H]1CC[C@H]2[C@@H]3CCC4=CC(=O)CC[C@]4(C)[C@H]3CC[C@]12C [TP, testosterone propionate] | 0.1 mg | ~0.03 mg | 10-30 fold | ~0.03 mg | 10-30 fold |  |
| tritiated dihydrotestosterone [[^3H]-DHT] |  |  |  |  |  | 9.15 |
